Source: ChEMBL document CHEMBL1131856, “Wasalexins A and B, new phytoalexins from wasabi: isolation, synthesis, and antifungal activity” (1999)

Experiments:
Plenodomus lingam [1] = assay: Antifungal activity against P. Lingam by spore germination assay after 24 hours; range is 40-50%; type: functional
Plenodomus lingam [2] = assay: Antifungal activity against P. Lingam by spore germination assay after 24 hours; No detectable inhibitory activity; type: functional, organism-based

| SMILES | Inhibition (Plenodomus lingam [1]) [%] | Activity (Plenodomus lingam [2]) |
| --- | --- | --- |
| CON1C(=O)/C(=C/N=C(SC)SC)c2ccccc21 | 50 |  |
| CSC(=N/C=C1/C(=O)N(C)c2ccccc21)SC |  | No detectable inhibitory activity |
| COC(=O)c1cn(OC)c2ccccc12 | 50 |  |
